The results in this text go back to PubChem BioAssay (NCI).

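Five concentrations, 48 hours, 96-well plates. Abbreviation: GI50, concentration required for 50% inhibition of growth. Definition used: TGI = concentration required for complete inhibition of growth.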

Among the test systems are M14 melanoma; BT-549 breast; UACC-257 melanoma; UO-31 renal; NCI/ADR-RES ovarian; HCT-15 colon; KM12 colon; OVCAR-5 ovarian.
Assay in all cases: NCI tumour cell line growth inhibition, 48 h

In the case of `Cc1cc2c(C(N)=O)cccc2n1-c1nc2c(c(NCc3ccccc3)n1)CCCN2`, the GI50 in the assay with M14 melanoma is 212 nM; with BT-549 breast it was 295 nM; in the assay on UACC-257 melanoma it was 167 nM; in the assay on UO-31 renal it was 215 nM; in the assay on NCI/ADR-RES ovarian, 307 nM; in the assay with HCT-15 colon, 162 nM. Further, the GI50 was 195 nM in the assay on KM12 colon and 230 nM with OVCAR-5 ovarian. In addition, the TGI with M14 melanoma worked out at 432 nM; in the assay on BT-549 breast, 695 nM; in the assay with UACC-257 melanoma it was 347 nM; in the assay on UO-31 renal, 474 nM; in the assay on NCI/ADR-RES ovarian it was 1740 nM; with HCT-15 colon, 467 nM. For the same compound, the TGI is 400 nM with KM12 colon and 585 nM with OVCAR-5 ovarian.

As for `CNC1NC(=O)c2ccccc2N1Cc1ccc(F)cc1` (stereo not drawn), the TGI was > 100000 nM in the assay with M14 melanoma; > 100000 nM with BT-549 breast; > 100000 nM with UACC-257 melanoma; 26000 nM with UO-31 renal; > 100000 nM in the assay with NCI/ADR-RES ovarian; > 100000 nM in the assay on HCT-15 colon. For the same compound, the TGI in the assay with KM12 colon and with OVCAR-5 ovarian was > 100000 nM throughout.

Consider `C#CC[C@H](c1nc2cc(Cl)ccc2c(=O)n1Nc1ccccc1)N(CCCN)C(=O)c1cccc(Cl)c1F`, for which the GI50 was 300 nM with M14 melanoma; 798 nM in the assay with BT-549 breast; 1020 nM with UACC-257 melanoma; 2940 nM in the assay on UO-31 renal; 14200 nM in the assay on NCI/ADR-RES ovarian; 2150 nM in the assay with HCT-15 colon. The GI50 in the assay with KM12 colon was 180 nM; in the assay on OVCAR-5 ovarian it was 419 nM. Also, the TGI in the assay on M14 melanoma is 1630 nM; in the assay on BT-549 breast, 3330 nM; in the assay on UACC-257 melanoma, 2370 nM; in the assay with UO-31 renal, 8070 nM; in the assay with NCI/ADR-RES ovarian, 30000 nM; in the assay on HCT-15 colon, 5680 nM. Further, the TGI with KM12 colon came to 1630 nM; with OVCAR-5 ovarian, 2560 nM.

For the compound `c1cncc(C(Nc2cccc3cccnc23)Nc2cccc3cccnc23)c1`, the TGI with M14 melanoma, in the assay with BT-549 breast, in the assay on UACC-257 melanoma, in the assay with UO-31 renal, with NCI/ADR-RES ovarian and in the assay with HCT-15 colon was > 100000 nM throughout. Further, the TGI in the assay with KM12 colon and with OVCAR-5 ovarian was > 100000 nM in each case.

Take `c1cncc(CNc2ccccc2-c2nnc(Nc3ccc4c(c3)OCCO4)o2)c1`: the GI50 in the assay on M14 melanoma was 70.4 nM; in the assay with BT-549 breast it was 861 nM; with UACC-257 melanoma, 11600 nM; in the assay on UO-31 renal it was 4690 nM; with NCI/ADR-RES ovarian, 55.7 nM; in the assay on HCT-15 colon, 107 nM. Moreover, the results for the GI50 in the assay with KM12 colon and with OVCAR-5 ovarian were 67 nM and 658 nM, respectively. For the same compound, the TGI in the assay on M14 melanoma was > 100000 nM; in the assay on BT-549 breast it was 53000 nM; with UACC-257 melanoma it was > 100000 nM; with UO-31 renal it was > 100000 nM; in the assay with NCI/ADR-RES ovarian it was > 100000 nM; in the assay on HCT-15 colon, > 100000 nM. The TGI in the assay with KM12 colon was 1860 nM; in the assay with OVCAR-5 ovarian it was > 100000 nM.

Turning to `NC(=O)C1=C(c2ccccc2)c2ccccc2C1=O`, the TGI came to 36800 nM in the assay on M14 melanoma; 30900 nM in the assay on BT-549 breast; 27100 nM in the assay on UACC-257 melanoma; 33300 nM in the assay on UO-31 renal; 38000 nM in the assay on NCI/ADR-RES ovarian; 26800 nM in the assay with HCT-15 colon. Also, the results for the TGI in the assay with KM12 colon and in the assay with OVCAR-5 ovarian were 30900 nM and 53900 nM, respectively.

Take `CCc1oc2ccccc2c1C(=O)c1cc(Br)c(O)c(Br)c1`: the TGI with M14 melanoma was 80600 nM; in the assay with BT-549 breast, 71400 nM; with UACC-257 melanoma, 42800 nM; in the assay on UO-31 renal, 40100 nM; in the assay on NCI/ADR-RES ovarian, 87200 nM; in the assay on HCT-15 colon it was 76200 nM. Moreover, the values for the TGI with KM12 colon and in the assay with OVCAR-5 ovarian were 55100 nM and 46100 nM, respectively.

For `Clc1cc(Cl)cc(N2N=C(c3cccc(Nc4ccncc4)c3)CC2c2ccc(Br)cc2)c1` (stereo not drawn), the GI50 is 1800 nM in the assay with M14 melanoma; 1940 nM with BT-549 breast; 1920 nM with UACC-257 melanoma; 1390 nM in the assay with UO-31 renal; 1910 nM in the assay with NCI/ADR-RES ovarian; 1800 nM with HCT-15 colon. The values for the GI50 in the assay with KM12 colon and in the assay on OVCAR-5 ovarian were 1690 nM and 1550 nM, respectively. For the same compound, the TGI was 3630 nM with M14 melanoma; 3720 nM with BT-549 breast; 3850 nM with UACC-257 melanoma; 2690 nM with UO-31 renal; 3860 nM in the assay with NCI/ADR-RES ovarian; 3490 nM in the assay with HCT-15 colon. Besides, the values for the TGI in the assay on KM12 colon and in the assay on OVCAR-5 ovarian were 3180 nM and 2920 nM, respectively.

Turning to `COc1cc(-c2cc(-c3nc4ccccc4[nH]3)[nH]n2)cc(OC)c1OC`, the GI50 in the assay with M14 melanoma was 2570 nM; in the assay on BT-549 breast, 1800 nM; in the assay on UACC-257 melanoma, 2100 nM; in the assay on UO-31 renal, 2210 nM; with NCI/ADR-RES ovarian, 2880 nM; with HCT-15 colon, 3430 nM. Further, the figures for the GI50 with KM12 colon and in the assay with OVCAR-5 ovarian were 3150 nM and 13000 nM, respectively. Besides, the TGI with M14 melanoma was 11600 nM; with BT-549 breast it was 8110 nM; in the assay on UACC-257 melanoma, 6120 nM; with UO-31 renal, 12200 nM; with NCI/ADR-RES ovarian, 8490 nM; in the assay on HCT-15 colon, 24400 nM. In addition, the results for the TGI in the assay on KM12 colon and in the assay on OVCAR-5 ovarian were 11600 nM and 32700 nM, respectively.

Consider `COc1cccc(/C=C/C(=O)c2cc3c(N)c(C(=O)Nc4cccc(Cl)c4C)sc3nc2C)c1`, for which the GI50 with M14 melanoma is 1020 nM; in the assay with BT-549 breast it was 1000 nM; with UACC-257 melanoma it was 3480 nM; in the assay with UO-31 renal, 809 nM; in the assay on NCI/ADR-RES ovarian it was 883 nM; in the assay with HCT-15 colon it was 510 nM. Also, the GI50 with KM12 colon was 1020 nM; with OVCAR-5 ovarian it was 1220 nM. In addition, the TGI is 2780 nM in the assay with M14 melanoma; 2800 nM in the assay on BT-549 breast; 20900 nM in the assay on UACC-257 melanoma; 1970 nM with UO-31 renal; 3080 nM in the assay on NCI/ADR-RES ovarian; 1460 nM in the assay on HCT-15 colon. Moreover, the TGI came out at 2800 nM in the assay on KM12 colon and 3440 nM in the assay with OVCAR-5 ovarian.
